Biological target: T1, Phenylalanine--tRNA ligase alpha/beta subunit (Staphylococcus aureus, UniProt P68849+Q9AGR3)
T1 sequence (P68849 whole entry): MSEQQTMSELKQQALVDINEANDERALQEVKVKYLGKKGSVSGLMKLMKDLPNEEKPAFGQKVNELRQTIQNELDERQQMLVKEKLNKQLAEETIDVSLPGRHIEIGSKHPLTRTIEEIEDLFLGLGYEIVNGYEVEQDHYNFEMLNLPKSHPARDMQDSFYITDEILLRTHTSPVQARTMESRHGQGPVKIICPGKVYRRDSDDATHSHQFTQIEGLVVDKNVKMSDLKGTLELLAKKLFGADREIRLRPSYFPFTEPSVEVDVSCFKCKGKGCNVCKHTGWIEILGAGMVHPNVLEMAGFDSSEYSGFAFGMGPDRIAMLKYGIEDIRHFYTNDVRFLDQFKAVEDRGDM
T1 sequence (Q9AGR3 whole entry): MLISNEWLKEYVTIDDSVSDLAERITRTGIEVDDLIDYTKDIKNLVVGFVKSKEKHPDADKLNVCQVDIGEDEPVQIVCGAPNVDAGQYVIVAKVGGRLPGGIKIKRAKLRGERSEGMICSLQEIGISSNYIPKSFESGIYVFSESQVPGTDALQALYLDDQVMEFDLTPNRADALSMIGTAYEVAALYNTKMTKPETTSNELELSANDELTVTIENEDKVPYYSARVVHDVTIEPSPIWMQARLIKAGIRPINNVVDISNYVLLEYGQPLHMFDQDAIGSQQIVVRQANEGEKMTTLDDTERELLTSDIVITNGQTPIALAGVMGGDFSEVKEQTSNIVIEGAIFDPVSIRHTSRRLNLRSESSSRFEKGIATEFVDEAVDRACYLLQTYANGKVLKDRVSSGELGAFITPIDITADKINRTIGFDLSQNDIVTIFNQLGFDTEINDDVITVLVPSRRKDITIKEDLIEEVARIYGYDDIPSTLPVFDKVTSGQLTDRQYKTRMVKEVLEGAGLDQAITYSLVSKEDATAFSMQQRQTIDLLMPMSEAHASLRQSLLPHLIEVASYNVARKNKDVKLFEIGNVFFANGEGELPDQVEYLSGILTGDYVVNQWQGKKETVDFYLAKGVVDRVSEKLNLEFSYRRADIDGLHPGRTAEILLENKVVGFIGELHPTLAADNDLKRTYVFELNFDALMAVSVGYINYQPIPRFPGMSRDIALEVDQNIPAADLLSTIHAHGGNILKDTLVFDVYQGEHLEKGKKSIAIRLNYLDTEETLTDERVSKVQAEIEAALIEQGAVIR
Assay: Homogeneous Enzyme Assay with SPA Beads
Description: The reactions were performed in […] 384-well Packard Optiplates. After 10 min of incubation, the reaction was stopped by addition of a continuously shaken suspension of YSi SPA beads at pH 2. Under acidic conditions, SPA beads bind tRNA aggregates, while radiolabeled amino acid substrate remains in solution. The beads were allowed to settle for at least 45 min and the plates were counted in a microplate scintillation counter TopCount (Packard).

Row | IC50 (pH 2) | IC50 (pH 7.9, 37 °C) | SMILES
1 | 43 nM |  | O=C(O)CCCOc1ccccc1CNCC(O)c1cc(Br)cs1 (configuration not stated) [4-[2-({[2-(4-bromothiophen-2-yl)-2-hydroxyethyl]amino}methyl)phenoxy]butanoic acid]
2 |  | > 10000 nM | OC(CNCc1ccccc1N1CCOCC1)c1cccc(C(F)(F)F)c1 (configuration not stated) [2-({[2-(morpholin-4-yl)phenyl]methyl}amino)-1-[3-(trifluoromethyl)phenyl]ethan-1-ol]

From BindingDB's records for doi:10.1016/j.bmcl.2005.03.003 (Gsk, 2005)
